{"source": "patent US9517221B2", "about": "“(2R)-2-propyloctanoic acid for functional brain disease” (ONO PHARMACEUTICAL CO., LTD., priority 2006, dated 2016)", "key": {"[1]": {"test_system": "olfactory bulbectomized rats", "experiment": "Hyperemotional reactivity (hyperemotional score) of olfactory bulbectomized rats", "format": "in vivo, rat", "parameters": "key to Hyperemotional score (mean ± S. E.), One day administration, Before administration / Hyperemotional score (mean ± S. E.), One day administration, After administration / Hyperemotional score (mean ± S. E.), Seven days administration, Before administration / Hyperemotional score (mean ± S. E.), Seven days administration, After administration: irritability score per Gomita et al. (1983) criteria", "description": "SPF rats (Crlj: WI) were used in the test. The animal for olfactory bulbectomy was anesthetized with pentobarbital sodium (Nembutal R Injection, Dainippon Pharmaceutical, dose: 1 mL/kg (intraperitoneal administration)), and the head was fixed using a brain stereotaxic apparatus (ASI Instruments, Inc., NARISHIGE). After incising the head skin, holes are opened at right and left olfactory bulb regions of the skull using a dental drill (manufactured by MINITOR), and the right and left olfactory bulbs were removed by sucking them using an aspirator connected to a tip-removed oral sonde, and the head skin was stitched thereafter. In this connection, in the case of the animals for sham-operation, anesthesia, brain fixation and head skin incision were carried out in the same manner as in the animals for olfactory bulbectomy, holes are opened at right and left olfactory bulb regions of the skull and the head skin was stitched without carrying out suction removal of the olfactory bulbs. The rats after olfactory bulbectomy were put into a series of five stainless steel cages, each of which was partitioned into two parts with an acrylic board for individual rearing space, and individually reared under a dark condition. The rats were subjected to the following tests of (2) and (3).\n• (a) Sham-operation group (12 animals); • (b) Vehicle control group (12 animals); • (c) 3 mg/kg administration group (12 animals) of (2R)-2-propyloctanoic acid; • (d) 10 mg/kg administration group (12 animals) of (2R)-2-propyloctanoic acid; • (e) 10 mg/kg administration group (12 animals) of Milnacipran hydrochloride. [Drug Administration]\nAs shown below, drug solution or vehicle was administered once a day for 8 days, a total of 8 times, at a respective liquid dose of 5 mL/kg. • (a) Sham-operation group: vehicle (0.1% by volume Tween 80) aqueous solution; • (b) Vehicle control group: vehicle (0.1% by volume Tween 80) aqueous solution; • (c) 3 mg/kg administration group of (2R)-2-propyloctanoic acid: a drug solution in which (2R)-2-propyloctanoic acid was prepared to be 0.6 mg/mL with the vehicle; • (d) 10 mg/kg administration group of (2R)-2-propyloctanoic acid: a drug solution in which (2R)-2-propyloctanoic acid was prepared to be 2.0 mg/mL with the vehicle; • (e) 10 mg/kg administration group of milnacipran hydrochloride: a drug solution in which Milnacipran hydrochloride was prepared to be 2.3 mg/mL with the vehicle (Milnacipran itself is included in 2.0 mg/mL). (2) Examination of the Activity for Hyperemotional Reactivity <Evaluation Method>\nEvaluation of the hyperemotional reactivity was carried out (1) before the grouping, (2) from 1 hour to 1 hour and 10 minutes after administration of the 1 day drug administration, (3) before administration of the 7 days administration and (4) from 1 hour to 1 hour and 10 minutes after the administration (a total of 4 times), by scoring the degree of irritability once a rat in accordance with the following evaluation criteria of hyperemotional reactivity (hyperemotional score: prepared based on the method of Gomita et al. (Folia Pharmacologica Japonica, 82, 267, 1983). Additionally, all of the conditions of the evaluation were shot and recorded using a video camera (SSC-DC430, SONY) and handled as reference data."}, "[2]": {"test_system": "olfactory bulbectomized rats", "experiment": "Anxiolytic behavior on elevated plus maze of olfactory bulbectomized rats", "format": "in vivo, rat", "conditions": "dose 10 mg/kg once a day for 8 days; 5 minutes test 1 hour after 8 days administration", "description": "SPF rats (Crlj: WI) were used in the test. The animal for olfactory bulbectomy was anesthetized with pentobarbital sodium (Nembutal R Injection, Dainippon Pharmaceutical, dose: 1 mL/kg (intraperitoneal administration)), and the head was fixed using a brain stereotaxic apparatus (ASI Instruments, Inc., NARISHIGE). After incising the head skin, holes are opened at right and left olfactory bulb regions of the skull using a dental drill (manufactured by […]), and the right and left olfactory bulbs were removed by sucking them using an aspirator connected to a tip-removed oral sonde, and the head skin was stitched thereafter. In this connection, in the case of the animals for sham-operation, anesthesia, brain fixation and head skin incision were carried out in the same manner as in the animals for olfactory bulbectomy, holes are opened at right and left olfactory bulb regions of the skull and the head skin was stitched without carrying out suction removal of the olfactory bulbs. The rats after olfactory bulbectomy were put into a series of five stainless steel cages, each of which was partitioned into two parts with an acrylic board for individual rearing space, and individually reared under a dark condition. The rats were subjected to the following tests of (2) and (3). • (a) Sham-operation group (12 animals); • (b) Vehicle control group (12 animals); • (c) 3 mg/kg administration group (12 animals) of (2R)-2-propyloctanoic acid; • (d) 10 mg/kg administration group (12 animals) of (2R)-2-propyloctanoic acid; • (e) 10 mg/kg administration group (12 animals) of Milnacipran hydrochloride. [Drug Administration] As shown below, drug solution or vehicle was administered once a day for 8 days, a total of 8 times, at a respective liquid dose of 5 mL/kg. • (a) Sham-operation group: vehicle (0.1% by volume Tween 80) aqueous solution; • (b) Vehicle control group: vehicle (0.1% by volume Tween 80) aqueous solution; • (c) 3 mg/kg administration group of (2R)-2-propyloctanoic acid: a drug solution in which (2R)-2-propyloctanoic acid was prepared to be 0.6 mg/mL with the vehicle; • (d) 10 mg/kg administration group of (2R)-2-propyloctanoic acid: a drug solution in which (2R)-2-propyloctanoic acid was prepared to be 2.0 mg/mL with the vehicle; • (e) 10 mg/kg administration group of milnacipran hydrochloride: a drug solution in which Milnacipran hydrochloride was prepared to be 2.3 mg/mL with the vehicle (Milnacipran itself is included in 2.0 mg/mL). (2) Examination of the Activity for Hyperemotional Reactivity <Evaluation Method> Evaluation of the anxiolytic behavior on an elevated plus maze was carried out once per animal for 5 minutes from 1 hour to 1 hour and 10 minutes after 8 days of the administration, in accordance with the following method. Each animal was softly put on a platform of elevated plus maze which is described later, toward one of the open arms. Thereafter, behavior of the animal was shot using a video camera (CCD-DC430, SONY) set up the elevated plus maze, and the images were analyzed by a video image behavior analyzing device (Etho Vision, manufactured by Noldus). Additionally, the images from the video camera were recorded and handled as reference data. In this connection, when the animal fell, it was regarded as staying on the open arm, and the animal was quickly returned to the place or the open arm where it was present just before the falling. The evaluation was carried out on the respective items shown by A to H (A: frequency of approach to the open arm, B: frequency of approach to the closed arm, C: frequency of approach to the platform, D: stayed time (second) on the open arm, E: stayed time (second) on the closed arm, F: stayed time (second) on the platform, G: defecation frequency on the open arm, platform and closed arm, and H: urination frequency on the open arm, platform and closed arm), by measuring A to F using the video image behavior analyzing device, and by measuring G and H after completion of the measurement. […]"}}, "note": "Counter-ions that a name gives are not always drawn."}
{"smiles": "CCN(CC)C(=O)C1(c2ccccc2)CC1CN", "note": "(stereo not drawn) [Milnacipran hydrochloride, reference compound]", "values": [{"measurement": "Hyperemotional score (mean ± S. E.), Seven days administration, After administration", "setting": "[1]; dose 10 mg/kg once a day, 1 hour to 1 hour 10 minutes after 7 days administration", "result": "7.6 ± 0.8"}, {"measurement": "Hyperemotional score (mean ± S. E.), Seven days administration, Before administration", "setting": "[1]; dose 10 mg/kg once a day, before administration of the 7 days administration", "result": "10.2 ± 1.1"}, {"measurement": "Hyperemotional score (mean ± S. E.), One day administration, After administration", "setting": "[1]; dose 10 mg/kg, 1 hour to 1 hour 10 minutes after 1 day administration", "result": "14.3 ± 1.0"}, {"measurement": "Hyperemotional score (mean ± S. E.), One day administration, Before administration", "setting": "[1]; dose 10 mg/kg, baseline before grouping, 12 animals", "result": "20.0 ± 0.0"}, {"measurement": "Time (seconds) stayed on closed arm (mean ± S. E.)", "setting": "[2]", "result": "196.0 ± 19.8", "unit": "s"}, {"measurement": "Time (seconds) stayed on open arm (mean ± S. E.)", "setting": "[2]", "result": "72.7 ± 18.3", "unit": "s"}]}
